Experiment [1] addresses human mu (MOR) opioid receptor (Homo sapiens (Human), UniProt P35372). The experiment in a line: Radioligand competition binding assay, mu opioid receptor. The conditions noted are these: [3H]Naloxone; for inhibition at 10 µM: read-out: Mu receptor % inhibition at single concentration. On the procedure:
The binding affinities of certain compounds of the present invention were evaluated using radioligand binding assays in membranes prepared from CHO-K1 cells expressing recombinant human kappa (KOR) or mu (MOR) opioid receptors.
Competition binding experiments were conducted by incubating membrane protein to equilibrium in triplicate in the presence of a fixed concentration of radioligand and increasing concentrations of test compound for evaluation of binding to KOR or single concentration (10 μM) of test compound for evaluation of binding to MOR in 101 μL final volume. The radioligands used were specific for each receptor type, and the assay conditions are described in Table 1. Following incubations, the membranes were rapidly filtered through GF/B filter plate (presoaked with 0.5% polyethyleneimine), washed five times with cold 50 mM Tris-HCl, pH 7.5, and the bound radioactivity was then measured by liquid scintillation counting. Non-specific binding was measured in the presence of excess ligand; this value was subtracted from the total binding to yield the specific binding at each test concentration.
Ki (affinity of test compound) was obtained using the Cheng Prusoff correction using experimental Kd (affinity of radioligand) values that were previously determined under these assay conditions. For MOR binding, compounds were tested at one concentration, 10 μM, to evaluate its ability to inhibit specific radioligand binding. The values are expressed as percent inhibition of specific binding and greater than 50% inhibition of binding was considered to be significant.
With respect to determining MOR binding, an approach similar to one used for KOR binding was used.

The test system of experiment [2] is acetic acid-induced writhing (visceral pain) in mice. Briefly: Acetic acid writhing (AAW) analgesic assay. Format: in vivo. How it is done:
An analgesic assay was used to determine whether a given compound can reduce and/or prevent visceral pain in mice. The assay utilizes Swiss Albino or CD-1 male mice (5-10 mice per group), each mouse being approximately 0.015-0.030 kg on the study day. Mice were treated according to standard protocols.
The animal was given an intraperitoneal (IP) injection of an irritant (acetic acid) that induces “writhing” which may include: contractions of the abdomen, twisting and turning of the trunk, arching of the back and the extension of the hindlimbs. Mice are given a single IP injection (0.1 mL/10 g bodyweight) of a 0.5% acetic acid solution. After the injection the animals were returned to their observation enclosure and their behavior was observed. Contractions were counted between 0 and 20 minutes after the injection. The animals were used once. In certain instances, the test articles were administered at multiple doses to determine a dose response curve.
Table 4 provides the results for certain compounds of the present invention that were administered subcutaneously. Table 5 provides the results for certain compounds of the present invention that were administered orally.

The target in the next experiment is MOR (Homo sapiens (Human), UniProt P35372). Briefly: cAMP accumulation assay in forskolin-stimulated CHO-K1 cells stably expressing MOR. It is filed as cell-based. How it is done: Inhibition of cAMP accumulation by select compounds was measured in forskolin-stimulated CHO-K1 cells stably expressing KOR. CHO-K1 cells stably expressing KOR were harvested using Invitrogen Cell Dissociation Buffer, and then centrifuged at 1200 rpm for five minutes. The supernatant was aspirated and cells were resuspended in assay buffer to a density of 4×10^5 cells/mL. 25 μL of cells were added into a white half-area 96 well plate. Fourteen point serial dilutions of test compounds were carried out in assay buffer (PBS with 0.5 mM IBMX). Ketazocine was used as a positive control for each assay. 12.5 μL of compound was added to the cells in duplicate for each test concentration. The cells were then stimulated with 12.5 μL forskolin at a final concentration 20 μM. Cells were incubated for 45 minutes in a 37° C., 5% CO2 water jacketed incubator. CisBio HTRF cAMP assay reagent was used for cAMP quantitation. Two hours after substrate addition, signal at 665/615 nm was measured using the Perkin Elmer Victor X4 HTRF reader. Data analysis was done using GraphPad Prism, sigmoidal dose-response (variable slope) curve fitting.
Using a similar approach, inhibition of cAMP accumulation by select compounds was also determined in forskolin-simulated CHO-K1 cells stably expressing MOR (wherein for this assay a density of 8×10^5 cells/mL was used and the positive control was DAMGO). […]

This is an account of results in patent publication US10081602B2, “Opioid agonists and uses thereof” (Nektar Therapeutics, priority 2013, dated 2018).

Regarding `COCCOCCOCCOCCOCCOCCOCCNc1ccc2c(c1)[C@]1(C)CCN(CC3CC3)[C@H](C2=O)[C@@H]1C` [Example 3, (2S,6R,11R)-3-(Cyclopropylmethyl)-8-(2,5,8,11,14,17,20-heptaoxadocosan-22-ylamino)-6,11-dimethyl-3,4,5,6-tetrahydro-2,6-methano-3-benzazocin-1 (2H)-One], the inhibition at 10 µM in experiment [1] was found to be 80.6%.
For `COCCOCCOCCOc1ccc2c(c1)[C@]1(C)CCN(CC3CC3)[C@H](C2=O)[C@@H]1C` [Example 4, (2S,6R,11R)-3-(Cyclopropylmethyl)-8-{2-[2-(2-methoxyethoxy)ethoxy]ethoxy}-6,11-dimethyl-3,4,5,6-tetrahydro-2,6-methano-3-benzazocin-1(2H)-One], the inhibition at 10 µM in experiment [1] stood at 89.2%. The “AAW % Efficacy” value in experiment [2] (oral, 200 mg/kg) turned out to be 3.8%; in experiment [2] (subcutaneous, 3 mg/kg), 0.0%; in experiment [2] (subcutaneous, 10 mg/kg), 39.7%; in experiment [2] (subcutaneous, 30 mg/kg), 100.0%.
Take `COCCOCCOCCOCCOCCOCCOCCOc1ccc2c(c1)[C@]1(C)CCN(CC3CC3)[C@H](C2=O)[C@@H]1C` [Example 6, (2S,6R,11R)-3-(Cyclopropylmethyl)-8-(2,5,8,11,14,17,20-heptaoxadocosan-22-yloxy)-6,11-dimethyl-3,4,5,6-tetrahydro-2,6-methano-3-benzazocin-1(2H)-One]: the inhibition at 10 µM in experiment [1] came to 48.6%.
Broadly, the Ki is a dissociation constant, usually derived from enzyme kinetics or from competition with a known ligand. The term EC50 denotes the midpoint of the concentration-response curve. Read a high EC50 as lower potency in that assay. For `COCCOCCOCCOCCOCCO[C@@H]1c2ccc(O)cc2[C@]2(C)CCN(CC3CC3)[C@H]1[C@@H]2C` [Example 25, (1R,2S,6R,11R)-1-(2,5,8,11,14-pentaoxahexadecan-16-yloxy)-3-(cyclopropylmethyl)-6,11-dimethyl-1,2,3,4,5,6-hexahydro-2,6-methanobenzo[d]azocin-8-ol], the Ki in experiment [1] (CHO-K1 membranes) amounted to 3920 nM. On MOR, the EC50 came out at 1210 nM.
In the case of `C[C@H]1[C@H]2C(=O)c3ccc(O)cc3[C@]1(C)CCN2CC1CC1` [Ketazocine, (2S,6R,11R)-3-(cyclopropylmethyl)-8-hydroxy-6,11-dimethyl-3,4,5,6-tetrahydro-2,6-methanobenzo[d]azocin-1(2H)-one, reference compound], the inhibition at 10 µM in experiment [1] is 99.2%. For the same compound, the “AAW % Efficacy” value in experiment [2] (oral, 0.1 mg/kg) stood at 12.8%; in experiment [2] (oral, 1 mg/kg) it was 34.5%; in experiment [2] (oral, 10 mg/kg) it was 58.9%; in experiment [2] (oral, 100 mg/kg), 100.0%; in experiment [2] (subcutaneous, 0.01 mg/kg), 10.57%; in experiment [2] (subcutaneous, 0.1 mg/kg), 50.03%. In addition, the “AAW % Efficacy” value in experiment [2] (subcutaneous, 1 mg/kg) was 100.00%.
